Legend:
HOP-62 = assay: Growth inhibition of human HOP62 cells assessed as cell growth at 1 uM incubated for 48 hrs by sulforhodamine B assay relative to control; type: functional; conditions: HOP-62, 48 h, read-out: Activity
M14 = assay: Growth inhibition of human M14 cells assessed as cell growth at 100 uM incubated for 48 hrs by sulforhodamine B assay relative to control; type: functional; conditions: M14, 48 h, read-out: Activity
SR = assay: Growth inhibition of human SR cells assessed as cell growth at 0.01 uM incubated for 48 hrs by sulforhodamine B assay relative to control; type: functional; conditions: read-out: Activity
HCT-116 = assay: Growth inhibition of human HCT116 cells assessed as cell growth at 0.1 uM incubated for 48 hrs by sulforhodamine B assay relative to control; type: functional; conditions: HCT-116, 48 h, read-out: Activity
DU-145 = assay: Growth inhibition of human DU145 cells incubated for 48 hrs by sulforhodamine B assay; type: functional, cell-based; conditions: DU-145, 48 h
HCT-15 [1] = assay: Growth inhibition of human HCT15 cells assessed as cell growth at 1 uM incubated for 48 hrs by sulforhodamine B assay relative to control; type: functional; conditions: HCT-15, 48 h, read-out: Activity
BT-549 = assay: Growth inhibition of human BT549 cells assessed as cell growth at 1 uM incubated for 48 hrs by sulforhodamine B assay relative to control; type: functional; conditions: BT-549, 48 h, read-out: Activity
SF-539 = assay: Growth inhibition of human SF539 cells incubated for 48 hrs by sulforhodamine B assay; type: functional, cell-based; conditions: SF-539, 48 h
786-0 = assay: Growth inhibition of human 786-0 cells assessed as cell growth at 100 uM incubated for 48 hrs by sulforhodamine B assay relative to control; type: functional; conditions: 786-0, 48 h, read-out: Activity
SNB-75 = assay: Growth inhibition of human SNB75 cells assessed as cell growth at 100 uM incubated for 48 hrs by sulforhodamine B assay relative to control; type: functional; conditions: SNB-75, 48 h, read-out: Activity
SF-295 [2] = assay: Growth inhibition of human SF295 cells assessed as cell growth at 1 uM incubated for 48 hrs by sulforhodamine B assay relative to control; type: functional; conditions: SF-295, 48 h, read-out: Activity
SF-268 [3] = assay: Growth inhibition of human SF268 cells assessed as cell growth at 0.1 uM incubated for 48 hrs by sulforhodamine B assay relative to control; type: functional; conditions: SF-268, 48 h, read-out: Activity
HCT-15 [4] = assay: Growth inhibition of human HCT15 cells assessed as cell growth at 100 uM incubated for 48 hrs by sulforhodamine B assay relative to control; type: functional; conditions: HCT-15, 48 h, read-out: Activity
UO-31 = assay: Growth inhibition of human UO31 cells assessed as cell growth at 100 uM incubated for 48 hrs by sulforhodamine B assay relative to control; type: functional; conditions: UO-31, 48 h, read-out: Activity
NCI-H522 = assay: Growth inhibition of human NCI-H522 cells assessed as cell growth at 10 uM incubated for 48 hrs by sulforhodamine B assay relative to control; type: functional; conditions: NCI-H522, 48 h, read-out: Activity
RPMI-8226 = assay: Growth inhibition of human RPMI8226 cells assessed as cell growth at 1 uM incubated for 48 hrs by sulforhodamine B assay relative to control; type: functional; conditions: RPMI-8226, 48 h, read-out: Activity
NCI-H226 = assay: Growth inhibition of human NCI-H226 cells assessed as cell growth at 0.1 uM incubated for 48 hrs by sulforhodamine B assay relative to control; type: functional; conditions: NCI-H226, 48 h, read-out: Activity
SF-295 [5] = assay: Growth inhibition of human SF295 cells incubated for 48 hrs by sulforhodamine B assay; type: functional, cell-based; conditions: SF-295, 48 h
HCC 2998 = assay: Growth inhibition of human HCC2998 cells assessed as cell growth at 0.01 uM incubated for 48 hrs by sulforhodamine B assay relative to control; type: functional; conditions: HCC 2998, 48 h, read-out: Activity
T47D = assay: Growth inhibition of human T47D cells assessed as cell growth at 0.01 uM incubated for 48 hrs by sulforhodamine B assay relative to control; type: functional; conditions: read-out: Activity
SF-268 [6] = assay: Growth inhibition of human SF268 cells assessed as cell growth at 1 uM incubated for 48 hrs by sulforhodamine B assay relative to control; type: functional; conditions: SF-268, 48 h, read-out: Activity
OVCAR-3 [7] = assay: Growth inhibition of human OVCAR3 cells assessed as cell growth at 0.1 uM incubated for 48 hrs by sulforhodamine B assay relative to control; type: functional; conditions: OVCAR-3, 48 h, read-out: Activity
HT-29 = assay: Growth inhibition of human HT-29 cells assessed as cell growth at 0.01 uM incubated for 48 hrs by sulforhodamine B assay relative to control; type: functional; conditions: HT-29, 48 h, read-out: Activity
COLO 205 = assay: Growth inhibition of human COLO205 cells assessed as cell growth at 100 uM incubated for 48 hrs by sulforhodamine B assay relative to control; type: functional; conditions: COLO 205, 48 h, read-out: Activity
PC-3 = assay: Growth inhibition of human PC3 cells assessed as cell growth at 100 uM incubated for 48 hrs by sulforhodamine B assay relative to control; type: functional; conditions: PC-3, 48 h, read-out: Activity
NCI-H460 = assay: Growth inhibition of human NCI-H460 cells assessed as cell growth at 0.1 uM incubated for 48 hrs by sulforhodamine B assay relative to control; type: functional; conditions: NCI-H460, 48 h, read-out: Activity
Hs-578T = assay: Growth inhibition of human Hs578T cells assessed as cell growth at 1 uM incubated for 48 hrs by sulforhodamine B assay relative to control; type: functional; conditions: read-out: Activity
MCF7 = assay: Growth inhibition of human MCF7 cells incubated for 48 hrs by sulforhodamine B assay; type: functional, cell-based; conditions: MCF7, 48 h
OVCAR-3 [8] = assay: Growth inhibition of human OVCAR3 cells assessed as cell growth at 100 uM incubated for 48 hrs by sulforhodamine B assay relative to control; type: functional; conditions: OVCAR-3, 48 h, read-out: Activity
UACC-257 = assay: Growth inhibition of human UACC257 cells assessed as cell growth at 0.1 uM incubated for 48 hrs by sulforhodamine B assay relative to control; type: functional; conditions: UACC-257, 48 h, read-out: Activity
U-251 = assay: Growth inhibition of human U251 cells assessed as cell growth at 1 uM incubated for 48 hrs by sulforhodamine B assay relative to control; type: functional; conditions: U-251, 48 h, read-out: Activity
[9] = read-out: LC50 (the source's name)
[10] = read-out: pLC50 (the source's name) (converted)

Structure (SMILES): O=C(Nc1cccc(-n2cc(-c3ccncc3)c(-c3cc(O)cc(Cl)c3)n2)c1)Nc1ccc(Cl)c(C(F)(F)F)c1
- growth at 1 µM (HOP-62): 96%
- growth at 100 µM (M14): -57%
- growth at 0.01 µM (SR): 105%
- growth at 0.1 µM (HCT-116): 103%
- GI50 (DU-145; read-out: GI50): 3.77 µM
- CC50 (DU-145; [9]): 55.8 µM
- TGI (DU-145; read-out: TGI): 11.7 µM
- GI50 (DU-145; read-out: pGI50 (converted)): 3.31 µM
- CC50 (DU-145; [10]): 56.2 µM
- TGI (DU-145; read-out: pTGI (converted)): 11.7 µM
- growth at 1 µM (HCT-15 [1]): 90%
- growth at 1 µM (BT-549): 90%
- GI50 (SF-539; read-out: GI50): 1.97 µM
- CC50 (SF-539; [9]): 13.7 µM
- TGI (SF-539; read-out: TGI): 44.9 µM
- GI50 (SF-539; read-out: pGI50 (converted)): 1.95 µM
- CC50 (SF-539; [10]): 13.8 µM
- TGI (SF-539; read-out: pTGI (converted)): 4.47 µM
- growth at 100 µM (786-0): -50%
- growth at 100 µM (SNB-75): -41%
- growth at 1 µM (SF-295 [2]): 91%
- growth at 0.1 µM (SF-268 [3]): 93%
- growth at 100 µM (HCT-15 [4]): -57%
- growth at 100 µM (UO-31): -73%
- growth at 10 µM (NCI-H522): -16%
- growth at 1 µM (RPMI-8226): 88%
- growth at 0.1 µM (NCI-H226): 95%
- GI50 (SF-295 [5]; read-out: GI50): 2.06 µM
- CC50 (SF-295 [5]; [9]): 17 µM
- TGI (SF-295 [5]; read-out: TGI): 49.6 µM
- GI50 (SF-295 [5]; read-out: pGI50 (converted)): 2.57 µM
- CC50 (SF-295 [5]; [10]): 17.8 µM
- TGI (SF-295 [5]; read-out: pTGI (converted)): 4.9 µM
- growth at 0.01 µM (HCC 2998): 97%
- growth at 0.01 µM (T47D): 91%
- growth at 1 µM (SF-268 [6]): 92%
- growth at 0.1 µM (OVCAR-3 [7]): 95%
- growth at 0.01 µM (HT-29): 98%
- growth at 100 µM (COLO 205): -77%
- growth at 100 µM (PC-3): -83%
- growth at 0.1 µM (NCI-H460): 102%
- growth at 1 µM (Hs-578T): 87%
- GI50 (MCF7; read-out: GI50): 2.53 µM
- LC50 (MCF7; read-out: LC50): > 100 µM
- TGI (MCF7; read-out: TGI): 85.4 µM
- GI50 (MCF7; read-out: pGI50 (converted)): 2.63 µM
- LC50 (MCF7; read-out: pLC50 (converted)): > 100 µM
- TGI (MCF7; read-out: pTGI (converted)): 8.51 µM
- growth at 100 µM (OVCAR-3 [8]): -1%
- growth at 0.1 µM (UACC-257): 91%
- growth at 1 µM (U-251): 56%
